Consider 13 compounds from ChEMBL document CHEMBL5260858, “Targeting mycobacterial membranes and membrane proteins: Progress and limitations” (Bioorg Med Chem, 2023).

The test system of data set [1] is Mycobacterium tuberculosis. In words: Antitubercular activity against Mycobacterium tuberculosis H37Rv assessed as extracellular bacterial growth inhibition. The format is functional.
The subject of data set [2] is Mycobacterium tuberculosis. Description: Antitubercular activity against Mycobacterium tuberculosis H37Rv assessed as intracellular bacterial growth inhibition. Format: functional.
Data set [3] has as its system Mycobacterium tuberculosis. In words: Antitubercular activity against Mycobacterium tuberculosis Erdman ATCC 35801 infected in RAW264.7 cells assessed as inhibition of intracellular bacterial growth incubated for 6 days by microplate alamar blue assay. Format: functional. Details: scale not given: the % may be the effect or the level left. The following applies: time 6 day.

Data set [4] in a line: Selectivity index, ratio of IC50 for cytotoxicity against African green monkey Vero cells to MIC for antitubercular activity against Mycobacterium tuberculosis H37Rv ATCC 27294. Format: toxicity, cell-based. Conditions: read-out: Selectivity Index.
Data set [5] concerns Mycobacterium tuberculosis. In words: Antitubercular activity against Mycobacterium tuberculosis H37Rv ATCC 27294 infected in african green monkey Vero cells assessed as bacterial growth inhibition incubated for 6 days by microplate alamar blue assay. The format is functional. The following applies: H37Rv ATCC 27294, 144 h, time 6 day.
In data set [6] the test system is Mycobacterium tuberculosis. In words: Antitubercular activity against Mycobacterium tuberculosis H37Rv infected in BALB/c mouse assessed as reduction in bacterial load at 100 mg/kg, po for 10 days by CFU analysis. Format: functional. Conditions: time 10 day.
Data set [7] deals with Mycobacterium tuberculosis. Description: Antitubercular activity against Mycobacterium tuberculosis H37Rv assessed as bacterial growth inhibition incubated for 6 days by resazurin reduction microplate assay. The format is functional. The following applies: 144 h, time 6 day.
Data set [8] concerns Mycobacterium tuberculosis. In words: Antitubercular activity against Mycobacterium tuberculosis H37Rv infected in human THP-1 cells assessed as bacterial growth inhibition incubated for 48 hrs by PrestoBlue staining based fluorescence analysis. The format is functional, organism-based. Conditions: THP-1, 48 h.
Data set [9] has as its system Mycobacterium tuberculosis. In words: Antitubercular activity against Mycobacterium tuberculosis H37Rv assessed as bacterial growth inhibition incubated for 14 days by agar plate method. The following applies: 336 h, time 14 day. Format: functional.
The subject of data set [10] is Mycobacterium tuberculosis. Description: Antitubercular activity against Mycobacterium tuberculosis H37Rv TMC102 assessed as bacterial growth inhibition. The format is functional.
A further data set concerns Mycobacterium marinum. In words: Antitubercular activity against Mycobacterium marinum strain M assessed as bacterial growth inhibition incubated for 14 days by agar plate method. Format: functional. The following applies: 336 h, time 14 day.
Data set [11] deals with Mycobacterium tuberculosis. In words: Antitubercular activity against Mycobacterium tuberculosis Erdman assessed as bacterial growth inhibition incubated for 14 days by agar plate method. Conditions: 336 h, time 14 day. Format: functional.
Data set [12] relates to Mycobacterium tuberculosis. Description: In vivo antimycobacterial activity against Mycobacterium tuberculosis H37Rv infected in C57BL/6 mouse assessed as reduction in bacterial load in lung at 30 mg/kg, po and measured after 10 days by CFU analysis. Format: functional. Conditions: time 10 day.
In data set [13] the test system is Mycolicibacterium smegmatis. In words: Antitubercular activity against Mycobacterium smegmatis ATCC 607 assessed as zone of inhibition incubated 30 hrs by Kirby-Bauer disc diffusion assay. The format is functional.
Data set [14] has as its system Mycobacterium tuberculosis. Description: In vivo antimycobacterial activity against Mycobacterium tuberculosis H37Rv infected in C57BL/6 mouse assessed as reduction in bacterial load in lung at 10 mg/kg, po and measured after 10 days by CFU analysis. The format is functional. Conditions: time 10 day.
Data set [15] has as its system Mycobacterium tuberculosis. In words: In vivo antimycobacterial activity against Mycobacterium tuberculosis H37Rv infected in C57BL/6 mouse assessed as reduction in bacterial load in spleen at 30 mg/kg, po and measured after 10 days by CFU analysis. The format is functional. The following applies: time 10 day.
Data set [16] relates to Mycobacterium tuberculosis. Description: In vivo antimycobacterial activity against Mycobacterium tuberculosis H37Rv infected in C57BL/6 mouse assessed as reduction in bacterial load in spleen at 10 mg/kg, po and measured after 10 days by CFU analysis. Format: functional. The following applies: time 10 day.
The subject of data set [17] is Mycobacterium tuberculosis. In words: Antitubercular activity against Mycobacterium tuberculosis H37Rv assessed as bacterial growth inhibition incubated for 7 days by microplate alamar blue assay. The format is functional. Conditions: 168 h, time 7 day.
Data set [18] has as its system Mycobacterium tuberculosis. Description: In vivo antimycobacterial activity against Mycobacterium tuberculosis H37Rv infected in BALB/c mouse assessed as reduction in bacterial load in lungs at 40 to 100 mg/kg, po and measured after 4 weeks. Conditions: dose 40-100 mg/kg. The format is functional.
The subject of data set [19] is Mycobacterium tuberculosis. Description: Antitubercular activity against Mycobacterium tuberculosis ATCC 27294 (H37Rv) assessed as bacterial growth inhibition by agar dilution method. The format is functional.
Data set [20] has as its system Mycobacterium tuberculosis. In words: In vivo antimycobacterial activity against Mycobacterium tuberculosis H37Rv infected in BALB/c mouse assessed as reduction in bacterial load in spleen at 40 to 100 mg/kg, po and measured after 4 weeks. Format: functional. Conditions: dose 40-100 mg/kg.
Data set [21] has as its system Mycobacterium tuberculosis. In words: Antitubercular activity against Mycobacterium tuberculosis assessed as bacterial growth inhibition in 7H9 medium incubated for 5 days by microplate reader analysis. The format is functional. Conditions: 120 h, time 5 day.
The subject of data set [22] is Mycobacterium tuberculosis. In words: Antitubercular activity against Mycobacterium tuberculosis H37Rv assessed as bacterial growth inhibition by REMA analysis. Format: functional.
Data set [23] has as its system Mycobacterium tuberculosis. Description: In vivo antimycobacterial activity against Mycobacterium tuberculosis H37Rv infected in mouse assessed as reduction in log10 CFU at 1 to 2 times MIC and measured after 10 days. The format is functional. Conditions: time 10 day.
For data set [24], the system named is Mycobacterium tuberculosis. In words: Antimycobacterial activity against Mycobacterium tuberculosis H37Rv infected in THP-1 cells assessed as reduction in log10 CFU at MIC and measured after 2 to 7 days. Format: functional. The following applies: time 2-7 day.
In data set [25] the test system is Mycobacterium tuberculosis. Description: In vivo antimycobacterial activity against Mycobacterium tuberculosis H37Rv infected in BALB/c mouse assessed as reduction in bacterial load in lung at 200 mg/kg, po and measured after 4 weeks. Format: functional.
Data set [26] deals with Mycobacterium tuberculosis. Description: In vivo antimycobacterial activity against Mycobacterium tuberculosis H37Rv infected in BALB/c mouse assessed as reduction in bacterial load in lung at 50 mg/kg, po and measured after 3 weeks. The format is functional.
Data set [27] has as its system Mycobacterium tuberculosis. Description: In vivo antimycobacterial activity against Mycobacterium tuberculosis H37Rv infected in BALB/c mouse assessed as reduction in bacterial load in lung at 100 mg/kg, po and measured after 3 weeks. The format is functional.
For data set [28], the system named is Mycolicibacterium smegmatis. Description: Antitubercular activity against Mycobacterium smegmatis assessed as bacterial growth inhibition. Format: functional.
The test system of data set [29] is Mycobacterium tuberculosis. In words: Antitubercular activity against Mycobacterium tuberculosis H37Rv assessed as bacterial growth inhibition by microdilution method. The format is functional.
The subject of data set [30] is Mycobacterium tuberculosis. Description: Antitubercular activity against Mycobacterium tuberculosis H37Rv infected in BALB/c mouse assessed as reduction in bacterial load at 150 mg/kg, po for 10 days by CFU analysis. The following applies: time 10 day. The format is functional.
In data set [31] the test system is Mycobacterium tuberculosis. Description: Antitubercular activity against Mycobacterium tuberculosis H37Rv assessed as bacterial growth inhibition incubated for 7 days by resazurin reduction microplate assay. The format is functional. Conditions: 168 h, time 7 day.

≈ marks a conversion by molar mass, not a printed value. Where only a bound is given, the exact number is not on record here.

With `COc1ccc(OCCNC(=O)c2cc([N+](=O)[O-])cc([N+](=O)[O-])c2)cc1`, the MIC in data set [1] and in data set [2] was 0.2 µM (≈ 0.0723 µg/mL) in each case.
Turning to `CC(C)=CCC/C(C)=C/CNCCNC1C2CC3CC(C2)CC1C3` (stereo not drawn) [SQ109], the Activity in data set [3] turned out to be 99%. The selectivity ratio in data set [4] was 16.7. The MIC in data set [5] amounted to 0.7 µM (≈ 0.231 µg/mL).
Consider `O=C(/C=C/c1ccccc1)N1CCN(Cc2ccc3c(c2)OCO3)CC1`, for which, in data set [6], the Activity worked out at 0.9 log10CFU. The MIC in [7] is 0.2 µg/mL (≈ 0.571 µM). For the same compound, the IC50 in [8] turned out to be 0.3 µg/mL (≈ 0.856 µM).
For the compound `Cc1cc2oc(=O)cc(-c3ccccc3)c2c(C)c1-c1ccc(CN2CCOCC2)cc1`, the MIC in [9] is 0.42 µM (≈ 0.179 µg/mL).
For the compound `O=C(Nc1ccc(F)c(F)c1F)NC12CC3CC(CC(C3)C1)C2`, in data set [10], the minimum inhibitory concentration (MIC) turned out to be 0.1 µg/mL (≈ 0.308 µM).
Consider `Cc1cc2oc(=O)cc(-c3cccc(N)c3)c2c(C)c1-c1ccc(CN2CCOCC2)cc1`, for which the results for the MIC (with Mycobacterium marinum; in data set [9]; in [11]) were 0.83 µM (≈ 0.366 µg/mL), 0.24 µM (≈ 0.106 µg/mL) and 0.4 µM (≈ 0.176 µg/mL), respectively.
`C=CCN1C(=O)NC(=O)/C(=C/NNC(=O)c2ccncc2)C1=O`: the Activity in data set [12] is 2.1 log10CFU; in [14], 1 log10CFU; in [15], 1.3 log10CFU; in data set [16], 0.6 log10CFU. In addition, the “inhibition zone (IZ)” value in [13] stood at 20 mm.
With `O=c1cc(-c2ccccc2O)oc2ccc(O)c(CN3CCC3)c12`, in [17], the MIC is 0.45 µg/mL (≈ 1.39 µM).
For the compound `CCOC(=O)NC(=O)c1ccsc1NC(=O)c1nc2ccccc2s1`, the Activity in data set [18] amounted to 2 log10CFU; in data set [20], 3 log10CFU. Moreover, the minimum inhibitory concentration (MIC) in data set [19] and in data set [21] was 0.19 µg/mL (≈ 0.506 µM) each time.
Turning to `COc1ncnc(Cn2cnc3c(C(=O)NCCF)cccc32)c1C`, in [22], the minimum inhibitory concentration (MIC) was determined as 1.56 µM (≈ 0.536 µg/mL). The Activity in data set [23] is given as more than 3 log10CFU; in data set [24], 1 log10CFU.
For the compound `CCOC(=O)NC(=O)c1ccsc1NC(=O)c1nc2ccncc2s1`, the results for the Activity in data set [25], in data set [26] and in data set [27] were more than 1.7 log10CFU, 1.7 log10CFU and 2.3 log10CFU, respectively. Besides, the minimal inhibitory concentration (MIC) in data set [28] turned out to be 0.089 µM (≈ 0.0335 µg/mL).
Turning to `COC(=O)c1c(NC(=O)c2c(F)c(F)c(F)c(F)c2F)sc2c1CCCCC2`, the minimum inhibitory concentration (MIC) in [29] stood at 1 µM.
For `CCSc1nc(NC)c2ccc(F)c(F)c2n1`, the Activity in [30] is listed as 0.5 log10CFU. Also, in data set [31], the MIC worked out at 0.02 µg/mL (≈ 0.0783 µM).
